Read-outs that look alike come from different tables or passages of the source.
Key:
Type in all cases: cell-based
[1] = tested on: murine cytotoxic T-lymphocyte responses; test: cells; conditions: for CTL activity (% specific ^51 Cr release): 90:1 effector to target
Excerpt: Immunosuppressive Activity of Vitamin D compounds on cytotoxic T lymphocyte Responses-General Test Description
Cytotoxic thymus-derived lymphocytes (CTL) constitute an important aspect of immune function and, as a result, play a key role in the rejection of grafted cells, tissues and organs. It is, therefore, essential to suppress CTL generation in a clinical situation in which CTL function is antithetical to the desired outcome as, for example, in transplantation. Cytotoxic T-lymphocytes have been studied for several years by many investigators and methods to evaluate CTL responses in vitro are well established.
As described below, CTL responses as affected by Vitamin D derivatives, were studied in vitro using cells from lab animals and human volunteers. Cytotoxic T-lymphocytes were generated from responder lymphoid cells in tissue culture medium during an incubation period of 6 days by exposure to foreign stimulator cells, i.e. from a genetically disparate source. A portion of the resultant effector cells were CTL capable of killing fresh cells related to the stimulator cells employed in the 6 day culture. To detect killing of cells by CTL, fresh target cells were incubated in excess ^51 chromium (as sodium chromate) until they were extensively labelled. Since target cells will retain the internalized radioisotope as long as they are viable but release the label when they are killed, CTL activity was assessed by quantitating the chromium released from target cells after a 4 or 18 hour incubation with CTL. Immunosuppression produced by Vitamin D derivatives was gauged as the ability to inhibit CTL responses during the initial incubation period relative to control cultures to which no Vitamin D derivative was added.
Female BALB/c By and C57BL/6 mice were obtained from Jackson Laboratories and were used between 8 and 10 weeks of age. Mice were given food and water ad libitum and were kept in a 12 hour light and 12 hour dark cycle.
For murine cultures, minimal essential medium with Hank's salts was supplemented to 1 millimolar with sodium pyruvate, to 0.1 millimolar with nonessential amino acids, to 2 millimolar with 1-glutamine, to 10% (v/v) with heat-inactivated fetal bovine serum, to 50 micrograms per ml with gentamicin, and to 1000 milligrams per liter with sodium bicarbonate and was used as tissue culture medium.
Stock solutions of Vitamin D derivatives were made in argon-saturated ethanol at a final concentration of 1×10^-2 molar, were covered with argon before sealing and were stored at -20° C. in the dark. Reduced lighting conditions were always employed when working with compounds. Compounds were diluted in tissue culture medium to 1×10^-4 molar and all subsequent dilutions were done in tissue culture medium containing 1% v/v ethanol. The final dilution into culture vessels was 1:10 thus keeping the vehicle concentration constant at 0.1% while varying the concentration of compound as tabulated in the results. For purposes of control, mixed leukocyte cultures were incubated in medium only (medium control) or in medium containing a final concentration of 0.1% ethanol (vehicle control).
Murine cytotoxic T-lymphocytes were generated in mixed leukocyte cultures by known methods. Specifically, single cell suspensions were prepared from spleens by gentle disruption in balanced salt solution (Hanks' balanced salt solution supplemented to 10%, v/v, with fetal bovine serum). After sedimentation on ice to remove particulate debris, cell suspensions were centrifuged at 400xg and were resuspended in fresh balanced salt solution. Cells to be used as stimulator cells were precluded from proliferating or generating cytotoxic T-lymphocytes by exposure to 1000 rads of gamma irradiation using a ^137 cesium source. […]

[2] = Viability / viable cell recovery of cultured murine cells (trypan blue dye exclusion); conditions: mouse, trypan blue exclusion
Experimental: (§1) Murine cytotoxic T-lymphocytes were generated in mixed leukocyte cultures by known methods. Specifically, single cell suspensions were prepared from spleens by gentle disruption in balanced salt solution (Hanks' balanced salt solution supplemented to 10%, v/v, with fetal bovine serum). After sedimentation on ice to remove particulate debris, cell suspensions were centrifuged at 400xg and were resuspended in fresh balanced salt solution. Cells to be used as stimulator cells were precluded from proliferating or generating cytotoxic T-lymphocytes by exposure to 1000 rads of gamma irradiation using a ^137 cesium source. […] Unless otherwise indicated, mixed leukocyte cultures were incubated at 37° C. for 6 days in a humidified atmosphere of 5% CO2 in air. The murine cytotoxic T-lymphocyte assay was conducted as follows. […] Cell pellets were resuspended in tissue culture medium and viable cells were enumerated by microscopy after exposure to trypan blue. Percent viability was calculated according to the formula: [formula] During the mixed leukocyte culture phase of the murine tests, three each of medium control and vehicle control cultures were included; each being assayed separately for cell viability and CTL activity. Unless otherwise indicated, single cultures were used to test for the effect of a particular concentration of any Vitamin D derivative. Moreover, cell viability was generally assessed only from control cultures; the resultant mean values being used to prepare desired viable effector cell concentrations from all cultures. The results for control cultures are expressed as the mean from replicate mixed leukocyte cultures±standard deviation thus establishing the between-culture variability inherent to any particular experiment. That changes in CTL activity were compound-induced was evidenced by dose-dependent changes in CTL activity measured from single cultures which exceeded the variability of the test system. […] The data shown in Table II below address this point. […] | ^b The viability of cells from each culture was determined by trypan

[3] = tested on: cultured murine cells; test: as above; conditions: immunosuppressive concentrations
Experimental: as §1

Q: Which “suppression of murine cytotoxic T-lymphocyte responses (in words)” value [1] does the source give for C=C1/C(=C\C=C2/CCC[C@]3(C)[C@@H]([C@H](C)/C=C/[C@H](C)C(C)(C)O)CC[C@@H]23)C[C@@H](O)C[C@@H]1O [1α,25-(OH)2 --D2, 1α,25-Dihydroxyergocalciferol] here?
A: suppress murine cytotoxic T-lymphocyte responses

Q: And the inhibition at 10 µM ([1]; Mus musculus, T-lymphocyte, Table I, 1 × 10^-5 molar, vs vehicle control, read-out: Inhibition of CTL activity (%))?
A: 91%

Q: And the inhibition at 1 µM ([1]; Mus musculus, T-lymphocyte, Table I, 1 × 10^-6 molar, vs vehicle control, read-out: Inhibition of CTL activity (%))?
A: 63%

Q: What about the inhibition at 0.1 µM ([1]; Mus musculus, T-lymphocyte, Table I, 1 × 10^-7 molar, vs vehicle control, read-out: Inhibition of CTL activity (%)) of the same compound?
A: 48%

Q: And the inhibition at 0.01 µM ([1]; Mus musculus, T-lymphocyte, Table I, 1 × 10^-8 molar, vs vehicle control, read-out: Inhibition of CTL activity (%))?
A: 40%

Q: And the inhibition at 0.001 µM ([1]; Mus musculus, T-lymphocyte, Table I, 1 × 10^-9 molar, vs vehicle control, read-out: Inhibition of CTL activity (%))?
A: 20%

Q: What about the inhibition at 0.0001 µM ([1]; Mus musculus, T-lymphocyte, Table I, 1 × 10^-10 molar, vs vehicle control, read-out: Inhibition of CTL activity (%)) of the same compound?
A: 3%

Q: And the inhibition at 1 µM ([1]; Mus musculus, T-lymphocyte, Table II, 1 × 10^-6 molar, vs vehicle, read-out: Inhibition of CTL activity (%))?
A: 56%

Q: What about the inhibition at 0.1 µM ([1]; Mus musculus, T-lymphocyte, Table II, 1 × 10^-7 molar, vs vehicle, read-out: Inhibition of CTL activity (%)) of the same compound?
A: 56%

Q: What about the inhibition at 0.01 µM ([1]; Mus musculus, T-lymphocyte, Table II, 1 × 10^-8 molar, vs vehicle, read-out: Inhibition of CTL activity (%)) of the same compound?
A: 37%

Q: What about the inhibition at 0.001 µM ([1]; Mus musculus, T-lymphocyte, Table II, 1 × 10^-9 molar, vs vehicle, read-out: Inhibition of CTL activity (%)) of the same compound?
A: 20%

Q: What about the inhibition at 0.0001 µM ([1]; Mus musculus, T-lymphocyte, Table II, 1 × 10^-10 molar, vs vehicle, read-out: Inhibition of CTL activity (%)) of the same compound?
A: 20%

Q: And the “CTL activity (% specific ^51 Cr release)” value ([1]; Table I, 1 × 10^-5 molar)?
A: 5 % specific ^51 Cr release

Q: What about the “CTL activity (% specific ^51 Cr release)” value ([1]; Table I, 1 × 10^-6 molar) of the same compound?
A: 20 % specific ^51 Cr release

Q: What about the “CTL activity (% specific ^51 Cr release)” value ([1]; Table I, 1 × 10^-7 molar) of the same compound?
A: 28 % specific ^51 Cr release

Q: And the “CTL activity (% specific ^51 Cr release)” value ([1]; Table I, 1 × 10^-8 molar)?
A: 32 % specific ^51 Cr release

Q: And the “CTL activity (% specific ^51 Cr release)” value ([1]; Table I, 1 × 10^-9 molar)?
A: 43 % specific ^51 Cr release

Q: And the “CTL activity (% specific ^51 Cr release)” value ([1]; Table I, 1 × 10^-10 molar)?
A: 52 % specific ^51 Cr release

Q: And the “CTL activity (% specific ^51 Cr release)” value ([1]; Table II, 1 × 10^-6 molar)?
A: 21 % specific ^51 Cr release

Q: And the “CTL activity (% specific ^51 Cr release)” value ([1]; Table II, 1 × 10^-7 molar)?
A: 21 % specific ^51 Cr release

Q: What about the “CTL activity (% specific ^51 Cr release)” value ([1]; Table II, 1 × 10^-8 molar) of the same compound?
A: 30 % specific ^51 Cr release

Q: What about the “CTL activity (% specific ^51 Cr release)” value ([1]; Table II, 1 × 10^-9 molar) of the same compound?
A: 38 % specific ^51 Cr release

Q: What about the “CTL activity (% specific ^51 Cr release)” value ([1]; Table II, 1 × 10^-10 molar) of the same compound?
A: 38 % specific ^51 Cr release

Q: What about the viability at 0.0001 µM [2] of the same compound?
A: 57%

Q: What about the viability at 0.001 µM [2] of the same compound?
A: 58%

Q: And the viability at 0.01 µM [2]?
A: 57%

Q: And the viability at 0.1 µM [2]?
A: 57%

Q: What about the viability at 1 µM [2] of the same compound?
A: 57%

Q: And the “toxicity to cultured murine cells (in words)” value [3]?
A: not toxic to cultured murine cells

Reference: patent publication US4749710A, “Immunosuppressive agents” (priority 1985, dated 1988)
